Laboratory results: US20250296939A1, “BENZOTHIOPHENE COMPOUND” (Kyoto Pharmaceutical Industries, Ltd., priority 2022, published 2025)

Key:
[1] = test system: NQO1 activity in Hepa1c1c7 cells; assay: NAD(P)H: quinone oxidoreductase-1 (NQO1) enzyme induction assay (in vitro); format: cell-based, mouse; conditions: Mus musculus, Hepa-1c1c7, NQO1 activity upon addition of 400 nM of test compound, about 48 hr, ratio from the base without the compound
Outline: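 Mouse Hepa1c1c7 hepatoma cells were treated with 400 nM compound for about 48 h, then lysed with digitonin/EDTA. NQO1 activity was measured as menadione-mediated MTT reduction with a G6P/G6PDH NADPH-regenerating system, stopped with dicoumarol, and read at A610. Values are the activity ratio versus untreated base wells.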

[2] = target: GST-fused human Keap1 (amino acid residues: 325-642) protein (Homo sapiens (Human), UniProt Q14145); assay: FP assay (in vitro): inhibition of binding between Nrf2 and Keap1 by fluorescence polarization; conditions: 20 nM GST-fused human Keap1, 10 nM FITC-labeled Nrf2 peptide, 2 hr at room temperature
Sequence of GST-fused human Keap1 (amino acid residues: 325-642) protein (Q14145 325-624 limits assumed): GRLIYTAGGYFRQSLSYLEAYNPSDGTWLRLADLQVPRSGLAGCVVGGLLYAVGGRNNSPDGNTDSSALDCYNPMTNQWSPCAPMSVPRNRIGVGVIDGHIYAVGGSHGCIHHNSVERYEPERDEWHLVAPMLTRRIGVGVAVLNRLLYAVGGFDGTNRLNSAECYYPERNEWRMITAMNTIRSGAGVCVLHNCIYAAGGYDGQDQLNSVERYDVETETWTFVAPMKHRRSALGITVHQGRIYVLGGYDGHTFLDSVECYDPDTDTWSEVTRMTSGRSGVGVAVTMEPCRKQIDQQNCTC

Row | SMILES | fold induction at 0.4 µM [1] | IC50 [2] [nM]
1 | CC[C@H]1Cc2cccnc2CN(Cc2cc([C@@H](CC(=O)O)c3ccc4c(nnn4C)c3C)cc3ccsc23)C1 [Example 69, (3R)-3-(1,4-Dimethyl-1H-benzotriazol-5-yl)-3-(7-{[(6S)-6-ethyl-5,6,7,9-tetrahydro-8H-pyrido[2,3-c]azepin-8-yl]methyl}-1-benzothiophen-5-yl)propanoic acid] | > 5 | 10 to 30
2 | CC[C@H]1Cc2cccnc2CN(Cc2cc([C@H](CC(=O)O)c3ccc4c(nnn4C)c3C)cc3ccsc23)C1 [Example 70, (3S)-3-(1,4-Dimethyl-1H-benzotriazol-5-yl)-3-(7-{[(6S)-6-ethyl-5,6,7,9-tetrahydro-8H-pyrido[2,3-c]azepin-8-yl]methyl}-1-benzothiophen-5-yl)propanoic acid] | > 5 | ≤ 10
3 | Cc1c(C(CC(=O)O)c2cc(CN3Cc4nc(N)ccc4OC4(CC4)C3)c3sccc3c2)cnc2c1nnn2C (stereo not drawn) [Example 71, 3-{7-[(7′-Amino-3′H-spiro[cyclopropane-1,2′-pyrido[2,3-f][1,4]oxazepin]-4′ (5′H)-yl)methyl]-1-benzothiophen-5-yl}-3-(3,7-dimethyl-3H-[1,2,3]triazolo[4,5-b]pyridin-6-yl)propanoic acid] | > 5 | 10 to 30
4 | CC[C@H]1Cc2ccc(O)nc2CN(Cc2cc([C@@H](CC(=O)O)c3ccc4c(nnn4C)c3C)cc3ccsc23)C1 [Example 72, (3R)-3-(1,4-Dimethyl-1H-benzotriazol-5-yl)-3-(7-{[(6S)-6-ethyl-2-hydroxy-5,6,7,9-tetrahydro-8H-pyrido[2,3-c]azepin-8-yl]methyl}-1-benzothiophen-5-yl)propanoic acid] | > 5 | 30 to 300
5 | CC[C@H]1Cc2ccc(O)nc2CN(Cc2cc([C@H](CC(=O)O)c3ccc4c(nnn4C)c3C)cc3ccsc23)C1 [Example 73, (3S)-3-(1,4-Dimethyl-1H-benzotriazol-5-yl)-3-(7-{[(6S)-6-ethyl-2-hydroxy-5,6,7,9-tetrahydro-8H-pyrido[2,3-c]azepin-8-yl]methyl}-1-benzothiophen-5-yl)propanoic acid] | > 5 | 10 to 30
6 | CC[C@@H]1CN(Cc2cc(C(CC(=O)O)c3ccc4c(nnn4C)c3C)cc3ccsc23)Cc2nc(F)c(O)cc2O1 (stereo partly drawn) [Example 74, 3-(1,4-Dimethyl-1H-benzotriazol-5-yl)-3-(7-{[(2R)-2-ethyl-7-fluoro-8-hydroxy-2,3-dihydropyrido[2,3-f][1,4]oxazepin-4(5H)-yl]methyl}-1-benzothiophen-5-yl)propanoic acid] | > 5 | 10 to 30
7 | CC[C@H]1Cc2cccnc2CN(Cc2cc([C@@H](CC(=O)O)c3cnc4c(nnn4C)c3C)cc3ccsc23)C1 [Example 75, (3R)-3-(3,7-Dimethyl-3H-[1,2,3]triazolo[4,5-b]pyridin-6-yl)-3-(7-{[(6S)-6-ethyl-5,6,7,9-tetrahydro-8H-pyrido[2,3-c]azepin-8-yl]methyl}-1-benzothiophen-5-yl)propanoic acid] | > 5 | 10 to 30
8 | CC[C@H]1Cc2cccnc2CN(Cc2cc([C@H](CC(=O)O)c3cnc4c(nnn4C)c3C)cc3ccsc23)C1 [Example 76, (3S)-3-(3,7-Dimethyl-3H-[1,2,3]triazolo[4,5-b]pyridin-6-yl)-3-(7-{[(6S)-6-ethyl-5,6,7,9-tetrahydro-8H-pyrido[2,3-c]azepin-8-yl]methyl}-1-benzothiophen-5-yl)propanoic acid] | > 5 | 10 to 30
9 | CC[C@@H]1CN(Cc2cc([C@@H](CC(=O)O)c3ccc4c(nnn4C)c3C)cc3ccsc23)Cc2nc(NC)ccc2O1 [Example 77, (3R)-3-(1,4-Dimethyl-1H-benzotriazol-5-yl)-3-(7-{[(2R)-2-ethyl-7-(methylamino)-2,3-dihydropyrido[2,3-f][1,4]oxazepin-4(5H)-yl]methyl}-1-benzothiophen-5-yl)propanoic acid] | > 5 | ≤ 10
10 | CC[C@@H]1CN(Cc2cc([C@H](CC(=O)O)c3ccc4c(nnn4C)c3C)cc3ccsc23)Cc2nc(NC)ccc2O1 [Example 78, (3S)-3-(1,4-Dimethyl-1H-benzotriazol-5-yl)-3-(7-{[(2R)-2-ethyl-7-(methylamino)-2,3-dihydropyrido[2,3-f][1,4]oxazepin-4(5H)-yl]methyl}-1-benzothiophen-5-yl)propanoic acid] | 3 to 5 | ≤ 10
11 | Cc1c([C@@H](CC(=O)O)c2cc(CN3Cc4cnc(O)cc4OC4(CC4)C3)c3sccc3c2)ccc2c1nnn2C [Example 79, (3S)-3-(1,4-Dimethyl-1H-benzotriazol-5-yl)-3-{7-[(8′-hydroxy-3′H-spiro[cyclopropane-1,2′-pyrido[3,4-f][1,4]oxazepin]-4′ (5′H)-yl)methyl]-1-benzothiophen-5-yl}propanoic acid] | 3 to 5 | 10 to 30
12 | CC[C@H]1Cc2ccc(O)nc2CN(Cc2cc([C@@H](CC(=O)O)c3cnc4c(nnn4C)c3C)cc3ccsc23)C1 [Example 80, (3R)-3-(3,7-Dimethyl-3H-[1,2,3]triazolo[4,5-b]pyridin-6-yl)-3-(7-{[(6S)-6-ethyl-2-hydroxy-5,6,7,9-tetrahydro-8H-pyrido[2,3-c]azepin-8-yl]methyl}-1-benzothiophen-5-yl)propanoic acid] | > 5 | 10 to 30
13 | CC[C@H]1Cc2ccc(O)nc2CN(Cc2cc([C@H](CC(=O)O)c3cnc4c(nnn4C)c3C)cc3ccsc23)C1 [Example 81, (3S)-3-(3,7-Dimethyl-3H-[1,2,3]triazolo[4,5-b]pyridin-6-yl)-3-(7-{[(6S)-6-ethyl-2-hydroxy-5,6,7,9-tetrahydro-8H-pyrido[2,3-c]azepin-8-yl]methyl}-1-benzothiophen-5-yl)propanoic acid] | > 5 | 10 to 30
14 | Cc1c([C@@H](CC(=O)O)c2cc(CN3Cc4c(ccnc4O)OC4(CC4)C3)c3sccc3c2)ccc2c1nnn2C [Example 82, (3S)-3-(1,4-Dimethyl-1H-benzotriazol-5-yl)-3-{7-[(6′-hydroxy-3′H-spiro[cyclopropane-1,2′-pyrido[3,4-f][1,4]oxazepin]-4′(5′H)-yl)methyl]-1-benzothiophen-5-yl}propanoic acid] | 3 to 5 | 10 to 30
15 | CC[C@H]1Cc2ccc(N)nc2CN(Cc2cc([C@@H](CC(=O)O)c3ccc4c(nnn4C)c3C)cc3ccsc23)C1 [Example 83, (3R)-3-(7-{[(6S)-2-Amino-6-ethyl-5,6,7,9-tetrahydro-8H-pyrido[2,3-c]azepin-8-yl]methyl}-1-benzothiophen-5-yl)-3-(1,4-dimethyl-1H-benzotriazol-5-yl)propanoic acid] | > 5 | ≤ 10
16 | CC[C@H]1Cc2ccc(O)nc2CN(Cc2cc([C@H](CC(=O)O)c3ccc4c(nnn4C)c3Cl)cc3ccsc23)C1 [Example 84, (3S)-3-(4-Chloro-1-methyl-1H-benzotriazol-5-yl)-3-(7-{[(6S)-6-ethyl-2-hydroxy-5,6,7,9-tetrahydro-8H-pyrido[2,3-c]azepin-8-yl]methyl}-1-benzothiophen-5-yl)propanoic acid] | > 5 | ≤ 10
17 | CC[C@H]1Cc2ccc(O)nc2CN(Cc2cc([C@H](CC(=O)O)c3cc(Cl)c4c(nnn4C)c3C)cc3ccsc23)C1 [Example 85, (3S)-3-(7-Chloro-1,4-dimethyl-1H-benzotriazol-5-yl)-3-(7-{[(6S)-6-ethyl-2-hydroxy-5,6,7,9-tetrahydro-8H-pyrido[2,3-c]azepin-8-yl]methyl}-1-benzothiophen-5-yl)propanoic acid] | > 5 | ≤ 10
18 | CC[C@H]1Cc2ccc(O)nc2CN(Cc2cc([C@H](CC(=O)O)c3cc(C)c4c(nnn4C)c3C)cc3ccsc23)C1 [Example 86, (3S)-3-(7-{[(6S)-6-Ethyl-2-hydroxy-5,6,7,9-tetrahydro-8H-pyrido[2,3-c]azepin-8-yl]methyl}-1-benzothiophen-5-yl)-3-(1,4,7-trimethyl-1H-benzotriazol-5-yl)propanoic acid] | > 5 | ≤ 10
19 | CC[C@H]1Cc2ccc(O)nc2CN(Cc2cc([C@@H](CC(=O)O)c3cc(C)c4c(nnn4C)c3C)cc3ccsc23)C1 [Example 87, (3R)-3-(7-{[(6S)-6-Ethyl-2-hydroxy-5,6,7,9-tetrahydro-8H-pyrido[2,3-c]azepin-8-yl]methyl}-1-benzothiophen-5-yl)-3-(1,4,7-trimethyl-1H-benzotriazol-5-yl)propanoic acid] | > 5 | ≤ 10
20 | CC[C@@H]1CN(Cc2cc(C(CC(=O)O)c3ccc4c(nnn4CC)c3C)cc3ccsc23)Cc2nc(C)ccc2O1 (stereo partly drawn) [Example 92, 3-(1-Ethyl-4-methyl-1H-benzotriazol-5-yl)-3-(7-{[(2R)-2-ethyl-7-methyl-2,3-dihydropyrido[2,3-f][1,4]oxazepin-4(5H)-yl]methyl}-1-benzothiophen-5-yl)propanoic acid] | > 5 | 30 to 300
21 | CC[C@@H]1CN(Cc2cc(C(CC(=O)O)c3ccc4c(nnn4C)c3C)cc3ccsc23)Cc2nc(C(F)(F)F)ccc2O1 (stereo partly drawn) [Example 93, 3-(1,4-Dimethyl-1H-benzotriazol-5-yl)-3-(7-{[(2R)-2-ethyl-7-(trifluoromethyl)-2,3-dihydropyrido[2,3-f][1,4]oxazepin-4(5H)-yl]methyl}-1-benzothiophen-5-yl)propanoic acid] | > 5 | ≤ 10
